We go through 16 molecules from US6218406A, “Farnesyl transferase inhibitors, their preparation, the pharmaceutical compositions which contain them and their use in the preparation of medicaments” (Aventis Pharma S.A., priority 1996, dated 2001).

The structures appear in SMILES notation. Where two headings read alike, the source gives them in different places.

The test deals with farnesyl transferase (Homo sapiens, UniProt P49354+P49356). The experiment in a line: Farnesyl transferase inhibition, [3H]-farnesylation of biotinylated K-ras C-terminal peptide (SPA assay). Format: biochemical. The conditions noted are these: 60 min at 37° C., mean of two IC50 values.
The mark [1] stands for this setting: K-Ras substrate, read-out: In vitro inhibitory activity (K-Ras) IC50.
Setting [2] is: In vitro inhibitory activity (K-Ras) IC50, K-Ras substrate.

A word on the IC50: it is the point on the concentration scale where inhibition reaches its midpoint. Regarding `COc1ccc([C@]23CC[C@H](c4ccccc42)[C@@]2(C(=O)O)CN(C(=O)Cc4ccccc4OC)C[C@@H]32)cc1` (relative stereo) [Example 6, (3aRS,4SR,9SR,9aRS)-4,9-ethano-9-(4-methoxyphenyl)-2-[(2-methoxyphenyl)acetyl]-2,3,3a,4,9,9a-hexahydro-1H-benzo[f]isoindole-3a-carboxylic Acid], under setting [1], the IC50 stood at 57.5 nM.
For `COc1ccccc1CC(=O)N1C[C@H]2[C@@]3(c4ccc(SC)cc4)CC[C@H](c4ccccc43)[C@@]2(C(=O)O)C1` (relative stereo) [Example 7, (3aRS,4SR,9SR,9aRS)-4,9-ethano-2-[(2-methoxyphenyl)acetyl]-9-(4-methylsulphanylphenyl)-2,3,3a,4,9,9a-hexahydro-1H-benzo[f]isoindole-3a-carboxylic Acid], under setting [1], the IC50 came to 50 nM.
`COc1ccccc1CC(=O)N1C[C@H]2[C@@]3(c4ccc(F)cc4)CC[C@H](c4ccccc43)[C@@]2(C(=O)O)C1` (relative stereo) [Example 8, (3aRS,4SR,9SR,9aRS)-4,9-ethano-9-(4-fluorophenyl)-2-[(2-methoxyphenyl)acetyl]-2,3,3a,4,9,9a-hexahydro-1H-benzo[f]isoindole-3a-carboxylic Acid] came in with an IC50 under setting [2] of 100 nM.
In turn, `COc1ccccc1CC(=O)N1C[C@H]2[C@@]3(c4cccc(C)c4)CC[C@H](c4ccccc43)[C@@]2(C(=O)O)C1` (relative stereo) [Example 9, (3aRS,4SR,9SR,9aRS)-4,9-ethano-2-[(2-methoxyphenyl)acetyl]-9-(3-methylphenyl)-2,3,3a,4,9,9a-hexahydro-1H-benzo[f]isoindole-3a-carboxylic Acid] showed a half-maximal inhibitory concentration (IC50) under setting [2] of 55 nM.
Consider `COc1cccc([C@]23CC[C@H](c4ccccc42)[C@@]2(C(=O)O)CN(C(=O)Cc4ccccc4OC)C[C@@H]32)c1` (relative stereo) [Example 10, (3aRS,4SR,9SR,9aRS)-4,9-ethano-9-(3-methoxyphenyl)-2-[(2-methoxyphenyl)acetyl]-2,3,3a,4,9,9a-hexahydro-1H-benzo[f]isoindole-3a-carboxylic Acid], for which the IC50 under setting [1] stood at 160 nM.
Consider `C=C(C(=O)N1C[C@H]2[C@@]3(c4ccc(C)cc4)CC[C@H](c4ccccc43)[C@@]2(C(=O)NCc2ccccc2)C1)c1ccccc1OC` (relative stereo) [Example 13, (3aRS,4SR, 9SR,9aRS)-3a-N-benzylcarbamoyl-4,9-ethano-2-[2-(2-methoxyphenyl)propenoyl]-9-(4-methylphenyl)-2,3,3a,4,9,9a-hexahydro-1H-benzo[f]isoindole], for which the IC50 under setting [1] turned out to be 140 nM.
On the same count and under the same terms, as for `C=C(C(=O)N1C[C@H]2[C@@]3(c4ccc(C)cc4)CC[C@H](c4ccccc43)[C@@]2(C(=O)NCc2cccnc2)C1)c1ccccc1OC` (relative stereo) [Example 17, (3aRS,4SR,9SR,9aRS)-4,9-ethano-2-[2-(2-methoxyphenyl)propenoyl]-9-(4-methylphenyl)-2,3,3a,4,9,9a-hexahydro-1H-benzo[f]isoindole-3a-N-(3-pyridylmethyl)carboxamide], the figure is 235 nM; as for `C=C(C(=O)N1C[C@H]2[C@@]3(c4ccc(C)cc4)CC[C@H](c4ccccc43)[C@@]2(C(=O)NCc2ccncc2)C1)c1ccccc1OC` (relative stereo) [Example 20, (3aRS,4SR,9SR,9aRS)-4,9-ethano-2-[2-(2-methoxyphenyl)propenoyl]-9-(4-methylphenyl)-2,3,3a,4,9,9a-hexahydro-1H-benzo[f]isoindole-3a-N-(4-pyridylmethyl)carboxamide], 140 nM; as for `C=C(C(=O)N1C[C@H]2[C@@]3(c4ccc(C)cc4)CC[C@H](c4ccccc43)[C@@]2(C(=O)NN(C)C)C1)c1ccccc1OC` (relative stereo) [Example 22, (3aRS,4SR,9SR,9aRS)-4,9-ethano-2-[2-(2-methoxyphenyl)propenoyl]-9-(4-methylphenyl)-2,3,3a,4,9,9a-hexahydro-1H-benzo[f]isoindole-3a-N',N'-dimethylcarbohydrazide], 131 nM.
For `C=C(C(=O)N1C[C@H]2[C@@]3(c4ccc(C)cc4)CC[C@H](c4ccccc43)[C@@]2(C(=O)NNc2ccccc2)C1)c1ccccc1OC` (relative stereo) [Example 23, (3aRS,4SR,9SR,9aRS)-4,9-ethano-2-[2-(2-methoxyphenyl)propenoyl]-9-(4-methylphenyl)-2,3,3a,4,9,9a-hexahydro-1H-benzo[f]isoindole-3a-N'-phenylcarbohydrazide], the IC50 under setting [1] amounted to 277 nM.
In the case of `C=C(C(=O)N1C[C@H]2[C@@]3(c4ccc(C)cc4)CC[C@H](c4ccccc43)[C@@]2(C(=O)NN2CCCCC2)C1)c1ccccc1OC` (relative stereo) [Example 24, (3aRS,4SR,9SR,9aRS)-4,9-ethano-2-[2-(2-methoxyphenyl)propenoyl]-9-(4-methylphenyl)-2,3,3a,4,9,9a-hexahydro-1H-benzo[f]isoindole-3a-N',N'-pentamethylenecarbohydrazide], under setting [1], the IC50 is 84 nM.
The same measure, in the same setting: as for `C=C(C(=O)N1C[C@H]2[C@@]3(c4ccc(C)cc4)CC[C@H](c4ccccc43)[C@@]2(C(=O)NCc2ccc[n+]([O-])c2)C1)c1ccccc1OC` (relative stereo) [Example 26, (3aRS,4SR,9SR,9aRS)-4,9-ethano-2-[2-(2-methoxyphenyl)-propenoyl]-9-(4-methylphenyl)-2,3,3a,4,9,9a-hexahydro-1H-benzo[f]isoindole-3a-N-(N-oxo-3-pyridyl)methylcarboxamide], the figure is 145 nM; as for `C=C(C(=O)N1C[C@H]2[C@@]3(c4ccc(C)cc4)CC[C@H](c4ccccc43)[C@@]2(C(=O)NNc2ccc(OC)cc2)C1)c1ccccc1OC` (relative stereo) [Example 27, (3aRS,4SR,9SR,9aRS)-4,9-ethano-2-[2-(2-methoxyphenyl)propenoyl]-9-(4-methylphenyl)-2,3,3a,4,9,9a-hexahydro-1H-benzo[f]isoindole-3a-N'-(4-methoxyphenyl)carbohydrazide], 9 nM.
On the same count and under the same terms, as for `C=C(C(=O)N1C[C@H]2[C@@]3(c4ccc(C)cc4)CC[C@H](c4ccccc43)[C@@]2(C(=O)NN(C)c2ccccc2)C1)c1ccccc1OC` (relative stereo) [Example 28, (3aRS,4SR,9SR,9aRS)-4,9-ethano-2-[2-(2-methoxyphenyl)propenoyl]-9-(4-methylphenyl)-2,3,3a,4,9,9a-hexahydro-1H-benzo[f]isoindole-3a-N'-methyl-N'-phenylcarbohydrazide], the figure is 54 nM.
As to `C=C(C(=O)N1C[C@H]2[C@@]3(c4ccc(C)cc4)CC[C@H](c4ccccc43)[C@@]2(C(=O)NNc2ccccc2C)C1)c1ccccc1OC` (relative stereo) [Example 29, (3aRS,4SR,9SR,9aRS)-4,9-ethano-2-[2-(2-methoxyphenyl)propenoyl]-9-(4-methylphenyl)-2,3,3a,4,9,9a-hexahydro-1H-benzo[f]isoindole-3a-N'-(2-methylphenyl)carbohydrazide], the IC50 under setting [1] is 140 nM.
The same measure, in the same setting: as for `C=C(C(=O)N1C[C@H]2[C@@]3(c4ccc5c(c4)OCCO5)CC[C@H](c4ccccc43)[C@@]2(C(=O)NCc2cccnc2)C1)c1ccccc1OC` (relative stereo) [Example 33, (3aRS,4SR,9SR,9aRS)-9-(2,3-dihydro-1,4-benzodioxin-6-yl)-4,9-ethano-2-[2-(2-methoxyphenyl)propenoyl]-2,3,3a,4,9,9a-hexahydro-1H-benzo[f]isoindole-3a-N-(3-pyridylmethyl)carboxamide], the figure is 242 nM.
